Here are results for 25 molecules from patent US8569344B2, “N-piperidinyl acetamide derivatives as calcium channel blockers” (Zalicus Pharmaceuticals Ltd., priority 2008, dated 2013).

pIC50: −log10 of the molar value.

The target in experiment [1] is T1, human α1G T-type channels (Homo sapiens, UniProt O43497).
T1 construct: expressed in transfected cells; host or cells: HEK 293
The experiment in a line: T-type calcium channel block, whole cell patch clamp in HEK cells (α1G). It is filed as cell-based. The settings on record: HEK cells, patch clamp, mainly non-inactivated protocol; values above 10 μM shown as 10 μM, below 0.30 μM shown as 0.30 μM; read-out: T-type Calcium Channel Block α1G IC50.

Experiment [2] addresses T2, human α1H T-type channels (Homo sapiens, UniProt O95180).
T2 construct: expressed in transfected cells; host or cells: HEK 293
The experiment in a line: T-type calcium channel block, whole cell patch clamp in HEK cells (α1H). The conditions noted are these: HEK cells, patch clamp, mainly non-inactivated protocol; values above 10 μM shown as 10 μM; read-out: T-type Calcium Channel Block α1H IC50. It is filed as cell-based. How it is done:
T-type calcium channel blocking activity was assayed in human embryonic kidney cells, HEK 293, stably transfected with the T-type calcium channel subunits. Briefly, cells were cultured in Dulbecco's modified eagle medium (DMEM) supplemented with 10% fetal bovine serum, 200 U/ml penicillin and 0.2 mg/ml streptomycin at 37° C. with 5% CO2. At 85% confluency cells were split with 0.25% trypsin/1 mM EDTA and plated at 10% confluency on glass coverslips. […] Fresh DMEM was supplied and the cells transferred to 28° C./5% CO2. Cells were incubated for 1 to 2 days prior to whole cell recording.
Standard patch-clamp techniques were employed to identify blockers of T-type currents. Briefly, previously described HEK cell lines stably expressing human α1G, α1H and α1I T-type channels were used for all the recordings (passage #: 4-20, 37° C., 5% CO2). Whole cell patch clamp experiments were performed using an Axopatch 200B amplifier (Axon Instruments, Burlingame, Calif.) linked to a personal computer equipped with pCLAMP software. Data were analyzed using Clampfit (Axon Instruments) and SigmaPlot 4.0 (Jandel Scientific). To obtain T-type currents, plastic dishes containing semi-confluent cells were positioned on the stage of a ZEISS AXIOVERT S100 microscope after replacing the culture medium with external solution (see below). Whole-cell patches were obtained using pipettes (borosilicate glass with filament, O.D.: 1.5 mm, I.D.: 0.86 mm, 10 cm length), fabricated on a SUTTER P-97 puller with resistance values of ˜5 MΩ (see below for internal solution).
In the non-inactivating protocol, the holding potential is set at −110 mV and with a pre-pulse at −100 mV for 1 second prior to the test pulse at −40 mV for 50 ms.
Test compounds were dissolved in external solution, 0.1-0.01% DMSO. After ˜10 min rest, they were applied by gravity close to the cell using a WPI microfil tubing. The “non-inactivated” pre-pulse was used to examine the resting block of a compound. The “inactivated” protocol was employed to study voltage-dependent block. […] Values are shown in μM and values above 10 μM are simply represented as 10 μM.
A general note: The patch-clamp technique gives a direct electrical read-out from membranes.

T1 sequence (O43497 whole entry): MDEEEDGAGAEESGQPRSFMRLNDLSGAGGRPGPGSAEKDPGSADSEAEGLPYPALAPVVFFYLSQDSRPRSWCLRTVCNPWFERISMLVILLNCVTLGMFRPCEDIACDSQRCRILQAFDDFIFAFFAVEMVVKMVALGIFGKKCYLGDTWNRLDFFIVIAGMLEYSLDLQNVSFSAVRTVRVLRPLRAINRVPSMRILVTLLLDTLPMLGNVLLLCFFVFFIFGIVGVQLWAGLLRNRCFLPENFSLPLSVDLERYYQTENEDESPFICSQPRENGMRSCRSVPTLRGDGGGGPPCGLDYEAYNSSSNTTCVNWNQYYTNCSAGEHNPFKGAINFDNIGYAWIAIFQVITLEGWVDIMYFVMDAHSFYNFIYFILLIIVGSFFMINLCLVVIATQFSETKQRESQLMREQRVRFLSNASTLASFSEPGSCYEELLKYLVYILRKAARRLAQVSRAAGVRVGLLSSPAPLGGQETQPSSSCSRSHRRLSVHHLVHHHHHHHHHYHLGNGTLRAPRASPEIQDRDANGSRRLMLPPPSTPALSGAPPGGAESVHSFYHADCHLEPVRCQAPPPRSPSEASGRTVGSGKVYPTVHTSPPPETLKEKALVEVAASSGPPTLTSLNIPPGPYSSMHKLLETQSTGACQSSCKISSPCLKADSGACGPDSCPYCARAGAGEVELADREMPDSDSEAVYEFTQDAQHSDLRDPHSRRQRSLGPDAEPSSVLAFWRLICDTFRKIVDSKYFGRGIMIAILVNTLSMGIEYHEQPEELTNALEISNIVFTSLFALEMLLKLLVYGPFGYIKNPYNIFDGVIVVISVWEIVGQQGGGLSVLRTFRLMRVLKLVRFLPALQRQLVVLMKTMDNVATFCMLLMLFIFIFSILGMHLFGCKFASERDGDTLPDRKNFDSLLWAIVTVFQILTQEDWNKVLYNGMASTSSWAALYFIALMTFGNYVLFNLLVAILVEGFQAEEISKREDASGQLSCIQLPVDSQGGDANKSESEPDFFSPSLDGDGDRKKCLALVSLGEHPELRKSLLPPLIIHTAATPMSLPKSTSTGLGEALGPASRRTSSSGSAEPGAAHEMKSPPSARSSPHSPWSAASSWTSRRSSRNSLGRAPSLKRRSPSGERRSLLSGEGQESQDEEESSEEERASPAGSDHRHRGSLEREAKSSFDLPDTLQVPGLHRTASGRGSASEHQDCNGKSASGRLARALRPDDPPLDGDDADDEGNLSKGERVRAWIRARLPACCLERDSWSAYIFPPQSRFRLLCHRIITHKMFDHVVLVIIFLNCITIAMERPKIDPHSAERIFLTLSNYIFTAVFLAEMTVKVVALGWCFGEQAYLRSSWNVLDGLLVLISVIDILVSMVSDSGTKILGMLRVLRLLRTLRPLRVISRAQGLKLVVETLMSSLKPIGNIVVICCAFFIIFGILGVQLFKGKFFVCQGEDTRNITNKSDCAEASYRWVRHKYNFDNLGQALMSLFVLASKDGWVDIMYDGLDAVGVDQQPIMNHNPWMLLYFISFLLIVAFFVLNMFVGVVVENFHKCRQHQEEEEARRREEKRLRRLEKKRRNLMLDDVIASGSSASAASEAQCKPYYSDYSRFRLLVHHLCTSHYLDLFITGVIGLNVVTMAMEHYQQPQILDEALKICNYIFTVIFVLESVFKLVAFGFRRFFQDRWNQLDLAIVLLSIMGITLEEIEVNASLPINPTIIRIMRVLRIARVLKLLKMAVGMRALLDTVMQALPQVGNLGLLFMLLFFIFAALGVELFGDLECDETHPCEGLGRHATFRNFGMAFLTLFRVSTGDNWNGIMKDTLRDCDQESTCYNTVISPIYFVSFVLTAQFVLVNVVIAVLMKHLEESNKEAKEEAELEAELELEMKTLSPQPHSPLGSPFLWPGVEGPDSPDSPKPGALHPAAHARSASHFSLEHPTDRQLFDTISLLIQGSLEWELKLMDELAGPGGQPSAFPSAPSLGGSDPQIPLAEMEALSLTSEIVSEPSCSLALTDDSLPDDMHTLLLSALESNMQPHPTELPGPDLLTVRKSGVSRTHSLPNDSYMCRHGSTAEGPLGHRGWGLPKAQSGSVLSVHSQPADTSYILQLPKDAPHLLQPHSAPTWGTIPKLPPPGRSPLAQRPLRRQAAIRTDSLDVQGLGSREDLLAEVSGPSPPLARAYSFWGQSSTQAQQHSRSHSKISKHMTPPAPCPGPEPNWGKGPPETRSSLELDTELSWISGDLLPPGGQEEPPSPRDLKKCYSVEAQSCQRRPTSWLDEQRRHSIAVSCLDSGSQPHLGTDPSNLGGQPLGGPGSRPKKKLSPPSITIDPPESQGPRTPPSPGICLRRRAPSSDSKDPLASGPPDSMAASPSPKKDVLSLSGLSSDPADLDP
T2 sequence (O95180 whole entry): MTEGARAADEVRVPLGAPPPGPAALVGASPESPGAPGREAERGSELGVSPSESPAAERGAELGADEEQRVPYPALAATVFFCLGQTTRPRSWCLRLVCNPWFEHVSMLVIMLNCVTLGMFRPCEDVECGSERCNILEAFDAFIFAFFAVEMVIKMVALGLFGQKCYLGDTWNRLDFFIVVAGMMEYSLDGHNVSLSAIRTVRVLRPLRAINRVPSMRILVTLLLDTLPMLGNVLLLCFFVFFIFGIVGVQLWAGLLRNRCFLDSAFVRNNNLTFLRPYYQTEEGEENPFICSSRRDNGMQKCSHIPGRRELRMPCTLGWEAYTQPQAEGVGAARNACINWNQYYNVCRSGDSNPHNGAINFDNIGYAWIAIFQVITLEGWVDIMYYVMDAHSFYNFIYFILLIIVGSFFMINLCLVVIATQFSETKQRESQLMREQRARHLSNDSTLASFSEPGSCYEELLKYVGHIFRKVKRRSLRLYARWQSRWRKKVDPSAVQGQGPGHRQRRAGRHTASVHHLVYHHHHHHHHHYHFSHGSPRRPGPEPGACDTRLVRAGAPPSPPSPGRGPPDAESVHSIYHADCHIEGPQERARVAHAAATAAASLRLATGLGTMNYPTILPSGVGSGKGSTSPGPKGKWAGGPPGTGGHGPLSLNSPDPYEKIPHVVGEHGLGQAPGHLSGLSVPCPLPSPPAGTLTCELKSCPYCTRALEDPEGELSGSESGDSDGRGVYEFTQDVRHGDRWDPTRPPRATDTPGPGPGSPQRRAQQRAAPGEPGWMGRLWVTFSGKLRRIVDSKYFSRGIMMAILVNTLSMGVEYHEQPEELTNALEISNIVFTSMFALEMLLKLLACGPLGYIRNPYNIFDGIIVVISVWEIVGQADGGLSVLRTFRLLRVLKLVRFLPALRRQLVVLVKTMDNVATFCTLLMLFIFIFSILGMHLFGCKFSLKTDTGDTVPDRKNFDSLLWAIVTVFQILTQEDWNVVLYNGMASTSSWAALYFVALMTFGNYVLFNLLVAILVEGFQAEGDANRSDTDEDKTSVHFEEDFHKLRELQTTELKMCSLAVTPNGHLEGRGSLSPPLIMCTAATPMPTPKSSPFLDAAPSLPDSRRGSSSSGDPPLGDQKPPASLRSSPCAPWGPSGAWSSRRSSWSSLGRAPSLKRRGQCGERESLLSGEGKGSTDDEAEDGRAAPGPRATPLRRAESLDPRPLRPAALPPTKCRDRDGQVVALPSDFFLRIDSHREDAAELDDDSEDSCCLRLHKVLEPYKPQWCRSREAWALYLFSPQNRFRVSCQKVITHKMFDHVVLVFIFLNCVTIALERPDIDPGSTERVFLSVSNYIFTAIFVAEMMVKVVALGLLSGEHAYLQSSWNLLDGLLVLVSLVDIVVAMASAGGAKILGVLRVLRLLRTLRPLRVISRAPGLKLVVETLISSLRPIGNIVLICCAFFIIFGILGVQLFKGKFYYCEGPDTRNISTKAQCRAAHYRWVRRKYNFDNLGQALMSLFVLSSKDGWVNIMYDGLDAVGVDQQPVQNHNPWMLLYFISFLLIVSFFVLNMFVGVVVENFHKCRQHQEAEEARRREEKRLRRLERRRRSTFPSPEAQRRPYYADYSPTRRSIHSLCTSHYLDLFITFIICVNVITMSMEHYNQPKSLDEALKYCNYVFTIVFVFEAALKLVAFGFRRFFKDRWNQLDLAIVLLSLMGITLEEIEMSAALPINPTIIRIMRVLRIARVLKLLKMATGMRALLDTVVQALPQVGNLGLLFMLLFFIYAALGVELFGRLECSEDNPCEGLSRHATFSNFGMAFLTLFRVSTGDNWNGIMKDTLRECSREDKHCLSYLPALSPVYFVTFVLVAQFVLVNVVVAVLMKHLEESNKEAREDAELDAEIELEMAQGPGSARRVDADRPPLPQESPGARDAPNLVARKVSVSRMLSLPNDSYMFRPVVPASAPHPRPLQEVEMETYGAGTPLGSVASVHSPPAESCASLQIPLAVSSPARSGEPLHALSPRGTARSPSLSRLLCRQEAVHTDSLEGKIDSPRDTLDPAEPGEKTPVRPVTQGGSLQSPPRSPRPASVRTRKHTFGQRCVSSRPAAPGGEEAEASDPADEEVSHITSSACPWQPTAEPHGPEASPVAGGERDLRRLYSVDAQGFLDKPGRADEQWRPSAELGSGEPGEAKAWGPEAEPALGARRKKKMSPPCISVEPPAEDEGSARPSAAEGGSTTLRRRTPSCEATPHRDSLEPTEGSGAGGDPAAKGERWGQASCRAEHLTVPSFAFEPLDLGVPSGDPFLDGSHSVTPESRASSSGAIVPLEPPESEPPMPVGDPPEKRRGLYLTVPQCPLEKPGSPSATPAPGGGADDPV

What is called pIC50 is the IC50 on a negative log10 scale, so that one unit is a factor of ten. As for `CS(=O)(=O)NC1(CN2CCC(CNC(=O)c3cc(C(F)(F)F)cc(C(F)(F)F)c3)CC2)CCCC1` [Compound 1, N-((1-((1-(methylsulfonamido)cyclopentyl)methyl)piperidin-4-yl)methyl)-3,5-bis(trifluoromethyl)benzamide], the pIC50 in experiment [1] was 6.00; in experiment [2] it was 6.43.

As to `O=C(NCC1CCN(CC2(NS(=O)(=O)C3CC3)CCCC2)CC1)c1cc(C(F)(F)F)cc(C(F)(F)F)c1` [Compound 2, N-((1-((1-(cyclopropanesulfonamido)cyclopentyl)methyl)piperidin-4-yl)methyl)-3,5-bis(trifluoromethyl)benzamide], the pIC50 is greater than 6.52 in experiment [1] and 6.27 in experiment [2].

With `CCS(=O)(=O)NC1(CN2CCC(CNC(=O)c3cc(C(F)(F)F)cc(C(F)(F)F)c3)CC2)CCCC1` [Compound 3, N-((1-((1-(ethylsulfonamido)cyclopentyl)methyl)piperidin-4-yl)methyl)-3,5-bis(trifluoromethyl)benzamide], the pIC50 is greater than 6.52 in experiment [1] and 6.26 in experiment [2].

With `CCNC(=O)NC1(CN2CCC(CNC(=O)c3cc(C(F)(F)F)cc(C(F)(F)F)c3)CC2)CCCC1` [Compound 11, N-((1-((1-(3-ethylureido)cyclopentyl)methyl)piperidin-4-yl)methyl)-3,5-bis(trifluoromethyl)benzamide], the pIC50 in experiment [1] is 5.72; in experiment [2], 5.42.

On to `CC(C)(C)NC(=O)NC1(CN2CCC(CNC(=O)c3cc(C(F)(F)F)cc(C(F)(F)F)c3)CC2)CCCC1` [Compound 12, N-((1-((1-(3-tert-butylureido)cyclopentyl)methyl)piperidin-4-yl)methyl)-3,5-bis(trifluoromethyl)benzamide], for which the pIC50 in experiment [1] was 6.32; in experiment [2] it was 5.78.

With `CCCNC(=O)NC1(CN2CCC(CNC(=O)c3cc(C(F)(F)F)cc(C(F)(F)F)c3)CC2)CCCC1` [Compound 13, N-((1-((1-(3-propylureido)cyclopentyl)methyl)piperidin-4-yl)methyl)-3,5-bis(trifluoromethyl)benzamide], the pIC50 in experiment [1] was 6.20; in experiment [2], 5.73.

For `O=C(NC1CCCCC1)NC1(CN2CCC(CNC(=O)c3cc(C(F)(F)F)cc(C(F)(F)F)c3)CC2)CCCC1` [Compound 14, N-((1-((1-(3-cyclohexylureido)cyclopentyl)methyl)piperidin-4-yl)methyl)-3,5-bis(trifluoromethyl)benzamide], the pIC50 was greater than 6.52 in experiment [1] and 5.93 in experiment [2].

Turning to `CC(C)NC(=O)NC1(CN2CCC(CNC(=O)c3cc(C(F)(F)F)cc(C(F)(F)F)c3)CC2)CCCC1` [Compound 15, N-((1-((1-(3-isopropylureido)cyclopentyl)methyl)piperidin-4-yl)methyl)-3,5-bis(trifluoromethyl)benzamide], the pIC50 in experiment [1] was 5.99; in experiment [2], 5.52.

As for `COC(=O)NC1(CN2CCC(CNC(=O)c3cc(C(F)(F)F)cc(C(F)(F)F)c3)CC2)CCCC1` [Compound 16, methyl 1-((4-((3,5-bis(trifluoromethyl)benzamido)methyl)piperidin-1-yl)methyl)cyclopentyl-carbamate], the pIC50 in experiment [1] is greater than 6.52; in experiment [2] it was 6.72.

Consider `CCOC(=O)NC1(CN2CCC(CNC(=O)c3cc(C(F)(F)F)cc(C(F)(F)F)c3)CC2)CCCC1` [Compound 17, ethyl 1-((4-((3,5-bis(trifluoromethyl)benzamido)methyl)piperidin-1-yl)methyl)cyclopentylcarbamate], for which the pIC50 was greater than 6.52 in experiment [1] and 6.92 in experiment [2].

`CC(C)COC(=O)NC1(CN2CCC(CNC(=O)c3cc(C(F)(F)F)cc(C(F)(F)F)c3)CC2)CCCC1` [Compound 18, isobutyl 1-((4-((3,5-bis(trifluoromethyl)benzamido)methyl)piperidin-1-yl)methyl)cyclopentyl-carbamate]: the results for the pIC50 in experiment [1] and in experiment [2] were greater than 6.52 and 7.10, respectively.

Take `O=C(NCC1CCN(CCNS(=O)(=O)C2CC2)CC1)c1cc(C(F)(F)F)cc(C(F)(F)F)c1` [Compound 19, N-((1-(2-(cyclopropanesulfonamido)ethyl)piperidin-4-yl)methyl)-3,5-bis(trifluoromethyl)benzamide]: the pIC50 in experiment [1] was 5.76; in experiment [2] it was 6.13.

Consider `CC(C)S(=O)(=O)NCCN1CCC(CNC(=O)c2cc(C(F)(F)F)cc(C(F)(F)F)c2)CC1` [Compound 20, N-((1-(2-(1-methylethylsulfonamido)ethyl)piperidin-4-yl)methyl)-3,5-bis(trifluoromethyl)benzamide], for which the pIC50 in experiment [1] is greater than 6.52; in experiment [2] it was 6.40.

With `O=C(NCC1CCN(CCNS(=O)(=O)C(F)(F)F)CC1)c1cc(C(F)(F)F)cc(C(F)(F)F)c1` [Compound 21, 3,5-bis(trifluoromethyl)-N-((1-(2-(trifluoromethylsulfonamido)ethyl)piperidin-4-yl)methyl)benzamide], the pIC50 was 5.44 in experiment [1] and 6.23 in experiment [2].

In the case of `CC(C)(C)OC(=O)NCCN1CCC(CNC(=O)c2cc(C(F)(F)F)cc(C(F)(F)F)c2)CC1` [Compound 35, tert-butyl 2-(4-((3,5-bis(trifluoromethyl)benzamido)methyl)piperidin-1-yl)ethylcarbamate], the values for the pIC50 in experiment [1] and in experiment [2] were 6.39 and 6.80, respectively.

Take `CCOC(=O)NCCN1CCC(CNC(=O)c2cc(C(F)(F)F)cc(C(F)(F)F)c2)CC1` [Compound 36, ethyl 2-(4-((3,5-bis(trifluoromethyl)benzamido)methyl)piperidin-1-yl)ethylcarbamate]: the pIC50 in experiment [1] was 5.37; in experiment [2], 5.77.

On to `CC(C)COC(=O)NCCN1CCC(CNC(=O)c2cc(C(F)(F)F)cc(C(F)(F)F)c2)CC1` [Compound 37, isobutyl 2-(4-((3,5-bis(trifluoromethyl)benzamido)methyl)piperidin-1-yl)ethylcarbamate], for which the pIC50 was greater than 6.52 in experiment [1] and 6.77 in experiment [2].

For `CC(C)(C)OC(=O)NCCN1CCC(CNC(=O)c2cccc(C(F)(F)F)c2)CC1` [Compound 39, tert-butyl 2-(4-((3-(trifluoromethyl)benzamido)methyl)piperidin-1-yl)ethylcarbamate], the pIC50 in experiment [1] is 5.88; in experiment [2], 5.93.

Regarding `CC(C)(C)OC(=O)NCCN1CCC(CNC(=O)c2cc(Cl)cc(C(F)(F)F)c2)CC1` [Compound 40, tert-butyl 2-(4-((3-chloro-5-(trifluoromethyl)benzamido)methyl)piperidin-1-yl)ethylcarbamate], the pIC50 in experiment [1] was greater than 6.52; in experiment [2] it was 6.80.

Regarding `CC(C)(C)C(=O)N1CC(N2CCC(CNC(=O)c3cc(F)cc(Cl)c3)CC2)C1` [Compound 607, 3-chloro-5-fluoro-N-((1-(1-pivaloyl-azetidin-3-yl)piperidin-4-yl)methyl) benzamide], the pIC50 in experiment [2] is 5.50.

For the molecule `CC1(C(=O)N2CC(N3CCC(CNC(=O)c4cc(F)cc(Cl)c4)CC3)C2)CC1` [Compound 608, 3-chloro-5-fluoro-N-((1-(1-(1-methylcyclopropanecarbonyl)azetidin-3-yl)piperidin-4-yl)methyl)benzamide], the pIC50 in experiment [2] is less than 5.00.

Take `O=C(NCC1CCN(C2CN(C(=O)C3(C(F)(F)F)CC3)C2)CC1)c1cc(F)cc(Cl)c1` [Compound 609, 3-chloro-5-fluoro-N-((1-(1-(1-(trifluoromethyl)cyclopropanecarbonyl)azetidin-3-yl)piperidin-4-yl)methyl) benzamide]: in experiment [2], the negative logarithm of the IC50 (pIC50) was 5.52.

On to `O=C(NCC1CCN(C2CN(C(=O)C3(C(F)(F)F)CCC3)C2)CC1)c1cc(F)cc(Cl)c1` [Compound 610, 3-chloro-5-fluoro-N-((1-(1-(1-(trifluoromethyl)cyclobutanecarbonyl)azetidin-3-yl)piperidin-4-yl)methyl) benzamide], for which the pIC50 in experiment [2] is 6.11.

Turning to `CC1(C(=O)N2CC(N3CCC(CNC(=O)c4cc(F)cc(Cl)c4)CC3)C2)CCC(F)(F)CC1` [Compound 611, 3-chloro-N-((1-(1-(4,4-difluoro-1-methylcyclohexanecarbonyl)azetidin-3-yl)piperidin-4-yl)methyl)-5-fluorobenzamide], the pIC50 in experiment [2] is 6.54.

Turning to `CC(C)(C)NC(=O)N1CC(N2CCC(CNC(=O)c3cc(F)cc(Cl)c3)CC2)C1` [Compound 612, N-tert-butyl-3-(4-((3-chloro-5-fluorobenzamido)methyl)piperidin-1-yl)azetidin-1-carboxamide], in experiment [2], the negative-log IC50 (pIC50) is less than 5.00.
